{"source": "patent US20250064741A1", "about": "“METHODS FOR ENHANCED NUCLEIC ACID DELIVERY” (CORNELL UNIVERSITY, priority 2021, published 2025)", "tested_on": "mice", "assay": "Screening drugs with macrophage/monocyte depletion capability for enhanced mRNA delivery (Fluc expression, MC3-LNP)", "assay_type": "in vivo", "conditions": "Fluc mRNA 0.2 mg/kg", "experimental": "FIGS. 6A-6B. Luciferase expression of pretreated mice injected with MC3-LNP loaded with Fluc mRNA (0.2 mg/kg).\nIn this example, various small molecules or monoclonal antibodies with reported macrophage depletion capabilities were screened to evaluate the effectiveness to enhance mRNA delivery. Drugs used in this study include clodronate liposome (Lipo-Clodronate), anti-CD115, anti-CCR2, anti-Ly6C, anti-Gr-1 and zoledronate (10 μg, 50 μg and 100 μg).\nFIG. 5 lists treatment methods studied in this example. […] In a different experiment, zoledronate was encapsulated in liposomes (formulated with DSPC and cholesterol) and delivered to the mouse at different dosage."}
{"smiles": "O=P(O)(O)C(O)(Cn1ccnc1)P(=O)(O)O", "note": "[zoledronate]", "values": [{"measurement": "mRNA delivery / Fluc expression of MC3-LNP in pretreated mice", "setting": "10 μg of zoledronate", "result": "enhanced the mRNA delivery"}, {"measurement": "Fluc expression of MC3-LNP in pretreated mice", "setting": "high dose of zoledronate", "result": "decreased the Fluc expression"}]}
